{"source": "paper PMC3154276", "about": "“The Effect of the Potential PhoQ Histidine Kinase Inhibitors on Shigella flexneri Virulence” (PLoS ONE, 2011)", "key": {"[1]": {"system": "Salmonella enterica Typhimurium SL1344", "assay": "Salmonella cell invasion assay (gentamicin protection, HeLa cells)", "type": "cell-based", "details": "for cell invasion rate of Salmonella enterica Typhimurium SL1344: HeLa cells, untreated Salmonella 6×10^−2; for effect on cell invasion of Salmonella SL1344 (words, discussion): Figure 7, concentration not restated", "method": "The effects of potential PhoQ inhibitors on cell invasion of Salmonella were determined by gentamicin protection assay.\nFigure 7 The effects of potential PhoQ inhibitors on cell invasion of Salmonella. […] The bacteria pre-treated with potential PhoQ inhibitor were added to HeLa cells at a multiplicity of infection of 100. Then gentamicin was added to kill extracellular bacteria and cell lysates were plated onto LB plates, and the colonies were counted. The results of the assays were expressed as the number of bacteria recovered from gentamicin-treated cells divided by the number of inoculated bacteria added to the cell. Salmonella enterica typhimurium SL1344 served as the positive control for the cell invasion assay; E. coli ATCC 25922 (treated without DMSO), an avirulent strain, served as the negative control for the cell invasion assay; bacteria treated with 0.1% DMSO also served as a control for the cell invasion assay. Values are means ± standard deviations from 6 independent wells. *p<0.01 vs. SL1344.\nThe gentamicin protection assay was used as a cellular model to evaluate the inhibitory effect of the four potential PhoQ inhibitors. Salmonella enterica typhimurium SL1344 was treated with each of the four potential PhoQ inhibitors (final concentrations: potential PhoQ inhibitor 1 was 12.5 µmol/L, 2 was 25 µmol/L, 3 was 100 µmol/L and 4 was 100 µmol/L) and grown for 8 hours. The bacteria pre-treated with potential PhoQ inhibitor without washing, were added to HeLa cells at a multiplicity of infection of 100, at the same time the bacteria were diluted and plated onto LB agar plates. The CFUs were counted as initial bacterial number before added into HeLa cells. Next, the bacteria were inoculated to HeLa cells and incubated with for 60 minutes prior to the addition of gentamicin to kill extracellular bacteria. After the incubation, the HeLa cells in each well were lysed in 1 ml of PBS containing 0.1% Triton X-100 for 10 minutes at room temperature. The lysates were diluted and plated onto LB agar plates in triplicate. Colonies grown on LB plates were counted. The results of the assays were expressed as the number of bacteria recovered from gentamicin-treated cells divided by the number of inoculated bacteria added to the cell. After lysates of HeLa cells were plated, the number of CFU that formed on LB agar were counted. The cells were inoculated with untreated SL1344 (treated without DMSO) as a positive control and E. coli ATCC 25922, an avirulent strain treated without DMSO, as a negative control. SL1344 was treated with the same amount of 0.1% DMSO as the other groups to control for any DMSO-specific effects. The cell invasion assay was performed in triplicate for each potential PhoQ inhibitor, and the assay was repeated twice."}, "S. flexneri 2a 301": {"system": "S. flexneri 2a 301", "assay": "Gentamicin protection assay, HeLa cell invasion by Sf301", "type": "cell-based", "details": "bacteria treated 8 h, Figure S4", "method": "Supplementary file pone.0023100.s004.tif: Figure S4 The effects of potential PhoQ inhibitors on cell invasion of Shigella Sf 301. […] The bacteria were treated with each of the four potential PhoQ inhibitors grown for 8 h. Then the bacteria were inoculated with HeLa cells for 60 minutes prior to the addition of gentamicin to kill extracellular bacteria. After the incubation, the HeLa cells in each well were lysed in 1 ml of PBS containing 0.1% Triton X-100. The lysates were diluted and plated onto LB agar plates in triplicate. Colonies grown on LB plates were counted. The results of the assays were expressed as the number of bacteria recovered from gentamicin-treated cells divided by the number of inoculated bacteria added to the cell. Values are means ± standard deviations from 6 independent wells. *p<0.01 vs. Sf301. […] (TIF) Click here for additional data file."}}}
{"smiles": "O=C(O)c1ccc(Cl)c(-c2ccc(/C=N/NC(=O)c3ccc(Br)cc3)o2)c1", "note": "[Compound 3]", "values": [{"measurement": "times lower invasion than the control, SL1344", "setting": "[1]; 100 µmo/L", "result": 166, "unit": "times"}, {"measurement": "cell invasion rate of Salmonella enterica Typhimurium SL1344", "setting": "[1]; 100 µmo/L", "result": "0.036×10^−2"}, {"measurement": "effect on cell invasion of Salmonella SL1344 (words, discussion)", "setting": "[1]", "result": "inhibited"}, {"measurement": "effect on HeLa cell invasion ability of Sf301", "setting": "S. flexneri 2a 301", "result": "can inhibit"}]}
{"smiles": "CCOc1ccccc1-c1cc(C(=O)N/N=C/c2ccc(OCc3ccccc3)c(OC)c2)c2ccccc2n1", "note": "[Compound 2]", "values": [{"measurement": "times lower invasion than the control, SL1344", "setting": "[1]; 25 µmo/L", "result": 3.84, "unit": "times"}, {"measurement": "cell invasion rate of Salmonella enterica Typhimurium SL1344", "setting": "[1]; 25 µmo/L", "result": "1.564×10^−2"}, {"measurement": "effect on cell invasion of Salmonella SL1344 (words, discussion)", "setting": "[1]", "result": "inhibited"}, {"measurement": "effect on HeLa cell invasion ability of Sf301", "setting": "S. flexneri 2a 301", "result": "can inhibit"}]}
{"smiles": "O=C(Nc1ccc(C2(c3cccc(NC(=O)c4cccc5ccccc45)c3)c3ccccc3C(=O)c3ccccc32)cc1)c1ccc2ccccc2c1", "note": "[Compound 1]", "values": [{"measurement": "times lower invasion than the control, SL1344", "setting": "[1]; 12.5 µmo/L", "result": 6.74, "unit": "times"}, {"measurement": "cell invasion rate of Salmonella enterica Typhimurium SL1344", "setting": "[1]; 12.5 µmo/L", "result": "0.89×10^−2"}, {"measurement": "effect on cell invasion of Salmonella SL1344 (words, discussion)", "setting": "[1]", "result": "inhibited"}, {"measurement": "effect on HeLa cell invasion ability of Sf301", "setting": "S. flexneri 2a 301", "result": "can inhibit"}]}
{"smiles": "O=C(O)c1cc(-c2ccc(-c3ccccc3Cl)o2)nc2ccc3ccccc3c12", "note": "[Compound 4]", "values": [{"measurement": "effect on cell invasion of SL1344", "setting": "[1]; 100 µmo/L", "result": "no obvious effect"}, {"measurement": "cell invasion rate of Salmonella enterica Typhimurium SL1344", "setting": "[1]; 100 µmo/L", "result": "5.7×10^−2"}, {"measurement": "effect on cell invasion of Salmonella SL1344 (words, discussion)", "setting": "[1]", "result": "no obvious effect"}, {"measurement": "effect on HeLa cell invasion ability of Sf301", "setting": "S. flexneri 2a 301", "result": "no effect"}]}
